From patent publication US8361988B2, “Nucleoside and nucleotide analogues with quaternary carbon centers and methods of use” (Institut de Recherches Cliniques de Montreal, priority 2007, dated 2013)

Key:
[1] = MTT cell proliferation assay, PFSK-1; type: cell-based; conditions: human, PFSK-1 cells, concentration causing 50% cell death of initial cell count over 24 hours, 1% DMSO
Procedure: (§1) The antitumor activities of the compounds of the invention were evaluated by a cellular proliferation assay. […] The cleavage reaction form a purple formazan crystals which is largely impermeable to cell membranes resulting in its accumulation within healthy cells. Solubilisation of the cells by addition of a detergent liberates and solubilizes the formazan crystals. The number of surviving cells is directly proportional to the level of the formazan product created. The color can then be quantified spectrophotometrically. The production of purple formazan in cells treated with a compound is measured relative to the production in control cells, and dose-response curves can be generated. This assay measures the cell proliferation rate and conversely, when metabolic events lead to apoptosis or necrosis, the reduction in cell viability, thus also allowing the evaluation of the cytotoxicity of the analogues synthesized in the laboratory.
(§2) For Tables 3 and 4, the assays were performed with 1% DMSO. The abbreviation “n.d.” means “not determined.” The values EC50, CC50, and SI have the following definitions.
(§3) Cell growth equals total cell count without any inhibitor after 72 hours minus initial cell count.
(§4) SI: Selectivity Index is the ratio CC50/EC50.

PFSK-1 = assay: MTT cell proliferation assay, PFSK-1; type: cell-based; conditions: Homo sapiens, PFSK-1, 72 h, concentration reducing cell growth by 50% after 72 hours, 1% DMSO
Procedure: as §1, §2, §3, §4

[2] = MTT cell proliferation assay, ZR-75-1; type: cell-based; conditions: human, ZR-75-1 cells, concentration causing 50% cell death of initial cell count over 24 hours, 1% DMSO
Procedure: (§5) The antitumor activities of the compounds of the invention were evaluated by a cellular proliferation assay. The MTT [3-(4,5-dimethylthiazol-2-yl)-2,5-diphenyltetrazolium bromide] cell proliferation assay, first described by Mosmann (Mosmann T., “Rapid colorimetric assay for cellular growth and survival: application to proliferation and cytotoxicity assays,” J. Immunol. Methods 1983 Dec. 16; 65(1-2):55-63, and incorporated by reference in its entirety) is based on the ability of active mitochondrial reductase enzymes from viable cells to cleave the tetrazolium rings of the pale yellow MTT. The cleavage reaction form a purple formazan crystals which is largely impermeable to cell membranes resulting in its accumulation within healthy cells. Solubilisation of the cells by addition of a detergent liberates and solubilizes the formazan crystals. The number of surviving cells is directly proportional to the level of the formazan product created. The color can then be quantified spectrophotometrically. The production of purple formazan in cells treated with a compound is measured relative to the production in control cells, and dose-response curves can be generated. This assay measures the cell proliferation rate and conversely, when metabolic events lead to apoptosis or necrosis, the reduction in cell viability, thus also allowing the evaluation of the cytotoxicity of the analogues synthesized in the laboratory.
as §2
(§6) Cell growth equals total cell count without any inhibitor after 72 hours minus initial cell count. Total cell counts after 72 hrs of growth range from 230 to 346% of initial cell counts depending on the cell line.
(§7) Total cell counts after 24 hrs of growth range from 103 to 109% of initial cell counts depending on the cell line.
as §4

ZR-75-1 = assay: MTT cell proliferation assay, ZR-75-1; type: cell-based; conditions: Homo sapiens, ZR-75-1, 72 h, concentration reducing cell growth by 50% after 72 hours, 1% DMSO
Procedure: as §5, §2, §6, §7, §4

[3] = target: T1, Drosophila melanogaster dNK (Drosophila melanogaster, UniProt Q9XZT6); assay: Phosphorylation assay (spectrophotometric coupled-enzyme), D. melanogaster dNK; type: biochemical; conditions: substrate at 100 μM, 37° C., 1 mM ATP, triplicate
T1 sequence (Q9XZT6 1-250): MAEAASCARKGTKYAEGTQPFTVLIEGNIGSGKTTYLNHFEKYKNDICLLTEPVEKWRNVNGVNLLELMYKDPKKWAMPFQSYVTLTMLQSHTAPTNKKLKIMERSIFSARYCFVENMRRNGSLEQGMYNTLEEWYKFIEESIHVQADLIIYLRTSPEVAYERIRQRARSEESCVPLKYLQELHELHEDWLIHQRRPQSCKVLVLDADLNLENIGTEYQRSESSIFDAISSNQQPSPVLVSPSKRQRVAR
Procedure: Compounds of the invention were also tested in a phosphorylation assay using three deoxynucleoside kinases. […] The compounds were at substrate concentration of 100 μM.
Kinetic assay. […] Briefly, the individual nucleosides at 100 μM were prepared in reaction buffer containing 50 mM Tris-HCl (pH 7.5), 0.1 M KCl, 5 mM MgCl2, 1 mM DTT, 1 mM ATP, 0.21 mM phosphoenolpyruvate, 0.18 mM NADH, and 2 units/ml pyruvate kinase and 2 units/ml lactate dehydrogenase (Roche Biochemicals, Indianapolis, Ind.). Assays were performed at 37° C. by measuring the absorbance change at 340 nm. The enzyme amount was adjusted to limit NADH turnover to 10% over the time of the experiment. All experiments were performed in triplicate.

[4] = target: Thermotoga maritima thymidine kinase (Thermotoga maritima, UniProt Q9WYN2); assay: Phosphorylation assay (spectrophotometric coupled-enzyme), T. maritima TK; type: biochemical; conditions: substrate at 100 μM, 37° C., 1 mM ATP, triplicate
Procedure: Compounds of the invention were also tested in a phosphorylation assay using three deoxynucleoside kinases. The kinases include human dCK, which is responsible for the activation of numerous nucleoside analog prodrugs; Drosophila melanogaster dNK, which is the fastest known kinases with the broadest substrate specificity profile; and Thermotoga maritima thymidine kinase, which is a good surrogate for human thymidine kinase 1, a member of the distinct type II kinase subfamily. The compounds were at substrate concentration of 100 μM.
Kinetic assay. Substrate phosphorylation was determined using a spectrophotometric coupled-enzyme assay (Munch-Petersen et al. (2000) J. Biol. Chem. vol. 275p. 66′73-66′79; Schelling et al. (2001) Anal. Biochem vol. 295 p. 82-8′7). Briefly, the individual nucleosides at 100 μM were prepared in reaction buffer containing 50 mM Tris-HCl (pH 7.5), 0.1 M KCl, 5 mM MgCl2, 1 mM DTT, 1 mM ATP, 0.21 mM phosphoenolpyruvate, 0.18 mM NADH, and 2 units/ml pyruvate kinase and 2 units/ml lactate dehydrogenase (Roche Biochemicals, Indianapolis, Ind.). Assays were performed at 37° C. by measuring the absorbance change at 340 nm. The enzyme amount was adjusted to limit NADH turnover to 10% over the time of the experiment. All experiments were performed in triplicate.

in vitro [5] = conditions: human, NCI H1395 cells
in vitro [6] = conditions: human, NCI H2052 cells
in vitro [7] = conditions: human, MOLT-4 cells

Chain of Thermotoga maritima thymidine kinase (Q9WYN2 whole entry): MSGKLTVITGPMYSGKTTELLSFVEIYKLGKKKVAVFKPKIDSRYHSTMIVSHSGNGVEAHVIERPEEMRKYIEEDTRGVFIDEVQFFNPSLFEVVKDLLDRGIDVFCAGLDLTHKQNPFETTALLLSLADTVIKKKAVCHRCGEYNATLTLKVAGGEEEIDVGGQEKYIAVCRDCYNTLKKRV

| SMILES | CC50 at 24 h [1] [µM] | EC50 (PFSK-1) [µM] | CC50 at 24 h [2] [µM] | EC50 (ZR-75-1) [µM] | D. melanogaster dNK substrate phosphorylation [3] | T. maritima TK substrate phosphorylation [4] | CC50 at 24 h (in vitro [5]) [µM] | CC50 at 24 h (in vitro [6]) [µM] | CC50 at 24 h (in vitro [7]) [µM] | D. melanogaster dNK substrate phosphorylation ([3]; listed as LCB-1007-1) | D. melanogaster dNK substrate phosphorylation ([3]; listed as LCB-1023-1) | T. maritima TK substrate phosphorylation ([4]; listed as LCB-1023-1) | D. melanogaster dNK substrate phosphorylation ([3]; listed as LCB-1004-1) | T. maritima TK substrate phosphorylation ([4]; listed as LCB-1004-1) |
| --- | --- | --- | --- | --- | --- | --- | --- | --- | --- | --- | --- | --- | --- | --- |
| COC(=O)C1(C)C[C@@H](n2ccc(=O)[nH]c2=O)O[C@@H]1CO (mixture of isomers) [LCB-1002] | > 500 | > 500 | > 500 | > 500 | <0.1 10^6 μmol/min mg | 2.2 10^−3 μmol/min mg | 493 | 423 |  |  |  |  |  |  |
| CC1(C(N)=O)CC(n2cc(F)c(N)nc2=O)O[C@@H]1CO (mixture of isomers) [LCB-1030] | > 500 | > 500 | > 500 | > 500 |  |  | > 500 | > 500 | > 500 |  |  |  |  |  |
| COC(=O)C1(C)CC(n2cc(C)c(=O)[nH]c2=O)OC1CO (racemic) [LCB-1010-2, (±) methyl 2-(hydroxymethyl)-3-methyl-5-(5-methyl-2,4-dioxo-3,4-dihydropyrimidin-1(2H)-yl)tetrahydrofuran-3-carboxylate] |  |  |  |  | 2.13 10^6 μmol/min mg | 5.6 10^−3 μmol/min mg |  |  |  |  |  |  |  |  |
| C[C@@]12CC(n3cc(F)c(N)nc3=O)O[C@@H]1COC2=O (mixture of isomers) [LCB-1028] | > 500 | > 500 | > 500 | > 500 |  |  | > 500 | > 500 | > 500 |  |  |  |  |  |
| CC1(CO)C[C@H](n2ccc(=O)[nH]c2=O)O[C@@H]1CO (mixture of isomers) [LCB-1006] | > 500 | > 500 | > 500 | > 500 | 0.22 10^6 μmol/min mg | 2.7 10^−3 μmol/min mg | > 500 | > 500 |  |  |  |  |  |  |
| Cc1cn([C@H]2CC(C)(CO)[C@@H](CO)O2)c(=O)[nH]c1=O (mixture of isomers) [LCB-1007] | > 500 | > 500 | > 500 | 460 |  | 2.2 10^−3 μmol/min mg | > 500 | > 500 |  | 0.84 10^6 μmol/min mg |  |  |  |  |
| COC(=O)C1(C)C[C@H](n2cc(C)c(=O)[nH]c2=O)O[C@@H]1CO (mixture of isomers) [LCB-1009-2] |  |  |  |  | 3.44 10^6 μmol/min mg | 4.9 10^−3 μmol/min mg |  |  |  |  |  |  |  |  |
| COC(=O)C1(C)C[C@H](n2cc(F)c(=O)[nH]c2=O)O[C@@H]1CO (mixture of isomers) [LCB-1023, 5-(5-Fluoro-2,4-dioxo-3,4-dihydro-2H-pyrimidin-1-yl)-2-hydroxymethyl-3-methyl-tetrahydro-furan-3-carhoxylic acid methyl ester] |  |  |  |  |  |  |  |  |  |  | 0.33 10^6 μmol/min mg | 2.1 10^−3 μmol/min mg |  |  |
| Cc1cn([C@@H]2CC(C)(CO)[C@@H](CO)O2)c(=O)[nH]c1=O (mixture of isomers) [LCB-1004] | > 500 | > 500 | > 500 | 420 |  |  | > 500 | > 500 |  |  |  |  | 4.2 10^6 μmol/min mg | 4.1 10^−3 μmol/min mg |
| CC1(CO)C[C@@H](n2ccc(=O)[nH]c2=O)O[C@@H]1CO (mixture of isomers) [LCB-1008] | > 500 | > 500 | > 500 | > 500 | 0.36 10^6 μmol/min mg | <1 10^−3 μmol/min mg | > 500 | > 500 |  |  |  |  |  |  |
| C[C@@]12CC(n3ccc(N)nc3=O)O[C@@H]1COC2=O (mixture of isomers) [LCB-1029] | > 500 | > 500 | > 500 | > 500 |  |  | > 500 | > 500 | > 500 |  |  |  |  |  |
| Cc1cn([C@H]2C[C@H](O)[C@@H](CO)O2)c(=O)[nH]c1=O [Thymidine, reference compound] |  |  |  |  |  | 830 10^−3 μmol/min mg |  |  |  |  |  |  |  |  |
| Cc1cn([C@H]2CC(C)(CO)[C@@H](CO)O2)c(=O)[nH]c1=O (mixture of isomers) [LCB-1007-2] |  |  |  |  | 0.74 10^6 μmol/min mg | 2.2 10^−3 μmol/min mg |  |  |  |  |  |  |  |  |
| Cc1cn([C@H]2CC(C)(CO)[C@@H](CO)O2)c(=O)[nH]c1=O (mixture of isomers) [LCB-1032, (±) 1-(-4,5-bis(hydroxymethyl)-4-methyltetrahydrofuran-2-yl)-5-methylpyrimidine-2,4(1H,3H)-dione] |  |  |  |  |  |  |  |  | > 500 |  |  |  |  |  |
| Cc1cn([C@@H]2CC(C)(CO)[C@@H](CO)O2)c(=O)[nH]c1=O (mixture of isomers) [LCB-1004-2] |  |  |  |  | 3.7 10^6 μmol/min mg | <1 10^−3 μmol/min mg |  |  |  |  |  |  |  |  |
| COC(=O)C1(C)C[C@H](n2ccc(=O)[nH]c2=O)O[C@@H]1CO (mixture of isomers) [LCB-1005] | > 500 | > 500 | > 500 | > 500 | <0.1 10^6 μmol/min mg | <1 10^−3 μmol/min mg | > 500 | > 500 |  |  |  |  |  |  |
| COC(=O)C1(C)C[C@@H](n2cc(C)c(=O)[nH]c2=O)O[C@@H]1CO (mixture of isomers) [LCB-1001] | > 500 | > 500 | > 500 | > 500 | <0.1 10^6 μmol/min mg | <1 10^−3 μmol/min mg | > 500 | 295 |  |  |  |  |  |  |
